Experiments:
[1] = test system: T1, human 20S proteasome, T-L peptidase; assay: Trypsin-like (T-L) activity of h20S probed with Boc-LRR-AMC; format: biochemical; details: 100 μM Boc-LRR-AMC
T1 construct: human proteasome isolated from erythrocytes; from tissue; host or cells: human erythrocytes
Description: To assess the influence of substitutions increasing proteolytic stability on the modulators’ capacity to stimulate chymotrypsin-like, trypsin-like, and caspase-like activity of h20S, we used classic fluorogenic substrates: Suc-LLVY-AMC, Boc-LRR-AMC, and Z-LLE-AMC, respectively.
The effect of all synthesized peptidomimetics on the catalytic activity of the proteasome was tested using a human proteasome isolated from erythrocytes. Suc-LLVY-AMC, Boc-LRR-AMC, and Z-LLE-AMC fluorogenic substrates (Bachem, Bubendorf, Switzerland) were used for assessment of the chymotrypsin-, trypsin-, and caspase-like activities, respectively. A homemade FRET-type substrate Dabcyl-EDANS (Lys(Dabcyl)-[…]EDANS)-Gly)[26] was used as an additional probe. Stock solutions of the substrates and tested peptidomimetics were prepared in dimethyl sulfoxide (DMSO), ensuring that the final concentration of DMSO in all samples remained consistent at 2%. The small fluorogenic substrates were used at a final concentration of 100 μM, while Dabcyl-EDANS was prepared at a final concentration of 15 μM. […] Activity tests were conducted in 96-well plates using 50 mM Tris/HCl, pH 8.0, as an assay buffer. The final concentration of h20S proteasome was adjusted to 0.002 mg/mL (2.8 nM). The fluorescence of released aminomethylcoumarin (AMC) was monitored at 460 nm (λex was 380 nm), while the hydrolysis of Dabcyl-EDANS was detected by measuring emission at 493 nm (λex was set at 335 nm). Fluorescence measurements were taken continuously every 2 min over a 60 min period at 37 °C using a Tecan Infinite M200Pro spectrofluorometer (Tecan Trading AG, Männedorf, Switzerland). All activity assays were performed in at least three independent replicates. The relative activity was calculated in relation to the catalytic activity of the vehicle (DMSO)-treated latent proteasome, which was regarded as 100%. Statistical analysis was performed using the one-way ANOVA followed by Tukey’s post-hoc test. P-value <0.05 was considered statistically significant.

[2] = test system: endogenous α-synuclein in primary cortical cultures; assay: Endogenous α-synuclein level in primary cortical cultures (Simple Western Jess); format: cell-based, mouse; details: 2.5 μM, 7 days; statistical significance only for 1g
Description: The effectiveness of the compounds has also been examined by using proteins as substrates. By means of SDS-PAGE electrophoresis, we checked the extent to which model proteins were digested by the 20S proteasome alone and after its stimulation by 10 μM modulators. […] After incubation with the enzyme in the presence of each modulator, less than 40% of synuclein remained. […] All animal experiments were performed following the protocols evaluated and approved by the Laboratory Animal Centre of the University of Helsinki (Ethics Approval License KEK24-013) and in accordance with the European Community Guidelines (Directive 2010/63/EU). […] The viability and number of neuronal cells were calculated automatically in an Automated Cell Counter (Bio-Rad), plated at a density of 1,000,000 cells per well on 6-well plates and cultured in Neurobasal A Medium (Thermo Fisher Scientific (Gibco), #12349015, Waltham, MA, USA) supplemented with GlutaMAX (Thermo Fisher Scientific (Gibco) #A1286001, Waltham, MA, USA), B-27 Supplement (Thermo Fisher Scientific (Gibco), #17504001, Waltham, MA, USA), and 200 ng/mL Primocin (Invitrogen, ant-pm-1, San Diego, CA, USA). […] Protein concentrations in the cell lysates were determined using a bicinchoninic acid (BCA) assay (Sigma-Aldrich, 3B9643-1L-KC, MO, USA) according to the manufacturer’s instructions. […]

## C[C@@H](O)[C@H](NC(=O)[C@H](Cc1ccccc1)NC(=O)[C@H](Cc1ccc(O)cc1)NC(=O)CN(CCCCN)C(=O)[C@H](CCCNC(=N)N)NC(=O)[C@H](CCCNC(=N)N)NC(=O)[C@H](CCCNC(=N)N)NC(=O)[C@H](CCC(N)=O)NC(=O)[C@H](CCCNC(=N)N)NC(=O)[C@H](CCCNC(=N)N)NC(=O)[C@H](CCCCN)NC(=O)[C@H](CCCCN)NC(=O)[C@@H](N)CCCNC(=N)N)C(=O)NCC(=O)N[C@@H](CO)C(=O)N[C@@H](CCCCN)C(=O)N[C@@H](CC(=O)O)C(=O)N[C@@H](Cc1c[nH]c2ccccc12)C(=O)N[C@@H](CCCNC(=N)N)C(=O)N[C@@H](CO)C(=O)N[C@@H](Cc1ccc(O)cc1)C(=O)N[C@@H](Cc1ccc(O)cc1)C(=O)N[C@@H](CO)C(=O)O [1f]
[1]
  T-L stimulating capacity, Boc-LRR-AMC: activated the T-L less and less with an increasing concentration
[2]
  effect on endogenous α-synuclein in primary cortical cultures: able to reduce the amount of endogenous α-synuclein
